One block for each compound: values may come before it.
Columns and labels:
[1] = test system: SH-SY5Y intracranial tumor; assay: SH-SY5Y intracranial tumor model; format: in vivo, Balb/C nude mice; settings: oral gavage, vehicle 25 days
Protocol: Balb/C nude mice were anesthetized by i.p. injection of pentobarbital sodium (100 mg/kg body weight). One million SH-SY5Y cells in a volume of 10 μl full-culture medium were injected into the caudate putamen region using a small animal stereotactic apparatus. On the 7th day after implantation, the tumor-bearing mice were assigned into 4 groups, PF-1066, Example 18 low dose, Example 18 high dose, and vehicle were given twice daily (BID) by oral gavage, treatment was stopped until the animal is dead. Animal survival and body weight were observed and recorded.

[2] = Brain penetration; format: in vivo; settings: mice, two hours after dosing; compared with Example 1
Protocol: To determine if a compound can cross the blood-brain-barrier (BBB), mice are dosed with the test compound. Two hours after dosing, mice are sacrificed and blood and brain tissues are collected and analyzed for test compound concentration. Brain penetration is defined as ratio of compound concentration in the brain tissues to that in plasma.

[3] = test system: H2228 tumor cells; assay: Cell viability assay of tumor cells with ALK fusion proteins (H2228); format: cell-based; settings: Homo sapiens, NCI-H2228; H2228, 72 hours post drug addition; read-out: Inhibition of H2228 tumor cell growth (IC50)
Protocol: (§1) At 72 hours post drug addition, Cell Titer Blue Reagent (Promega, Madison, Wis.) was added and fluorescence was measured on a Spectramax spectrophotometer (Molecular Devices, Sunnyvale, Calif.) according to the manufacturer's instructions. All experimental points were set up in hextuplicate replicates and were performed at least two independent times. IC50's were calculated using GraphPad Prism version 5 for Windows. The curves were fit using a nonlinear regression model with a log (inhibitor) vs. response formula.

[4] = biological target: ALK (Homo sapiens (Human), UniProt Q9UM73); assay: Ambit kinase binding assay (ALK); settings: read-out: ALK inhibitory activities in the Ambit assay (IC50)
Chain of ALK (Q9UM73 19-1620): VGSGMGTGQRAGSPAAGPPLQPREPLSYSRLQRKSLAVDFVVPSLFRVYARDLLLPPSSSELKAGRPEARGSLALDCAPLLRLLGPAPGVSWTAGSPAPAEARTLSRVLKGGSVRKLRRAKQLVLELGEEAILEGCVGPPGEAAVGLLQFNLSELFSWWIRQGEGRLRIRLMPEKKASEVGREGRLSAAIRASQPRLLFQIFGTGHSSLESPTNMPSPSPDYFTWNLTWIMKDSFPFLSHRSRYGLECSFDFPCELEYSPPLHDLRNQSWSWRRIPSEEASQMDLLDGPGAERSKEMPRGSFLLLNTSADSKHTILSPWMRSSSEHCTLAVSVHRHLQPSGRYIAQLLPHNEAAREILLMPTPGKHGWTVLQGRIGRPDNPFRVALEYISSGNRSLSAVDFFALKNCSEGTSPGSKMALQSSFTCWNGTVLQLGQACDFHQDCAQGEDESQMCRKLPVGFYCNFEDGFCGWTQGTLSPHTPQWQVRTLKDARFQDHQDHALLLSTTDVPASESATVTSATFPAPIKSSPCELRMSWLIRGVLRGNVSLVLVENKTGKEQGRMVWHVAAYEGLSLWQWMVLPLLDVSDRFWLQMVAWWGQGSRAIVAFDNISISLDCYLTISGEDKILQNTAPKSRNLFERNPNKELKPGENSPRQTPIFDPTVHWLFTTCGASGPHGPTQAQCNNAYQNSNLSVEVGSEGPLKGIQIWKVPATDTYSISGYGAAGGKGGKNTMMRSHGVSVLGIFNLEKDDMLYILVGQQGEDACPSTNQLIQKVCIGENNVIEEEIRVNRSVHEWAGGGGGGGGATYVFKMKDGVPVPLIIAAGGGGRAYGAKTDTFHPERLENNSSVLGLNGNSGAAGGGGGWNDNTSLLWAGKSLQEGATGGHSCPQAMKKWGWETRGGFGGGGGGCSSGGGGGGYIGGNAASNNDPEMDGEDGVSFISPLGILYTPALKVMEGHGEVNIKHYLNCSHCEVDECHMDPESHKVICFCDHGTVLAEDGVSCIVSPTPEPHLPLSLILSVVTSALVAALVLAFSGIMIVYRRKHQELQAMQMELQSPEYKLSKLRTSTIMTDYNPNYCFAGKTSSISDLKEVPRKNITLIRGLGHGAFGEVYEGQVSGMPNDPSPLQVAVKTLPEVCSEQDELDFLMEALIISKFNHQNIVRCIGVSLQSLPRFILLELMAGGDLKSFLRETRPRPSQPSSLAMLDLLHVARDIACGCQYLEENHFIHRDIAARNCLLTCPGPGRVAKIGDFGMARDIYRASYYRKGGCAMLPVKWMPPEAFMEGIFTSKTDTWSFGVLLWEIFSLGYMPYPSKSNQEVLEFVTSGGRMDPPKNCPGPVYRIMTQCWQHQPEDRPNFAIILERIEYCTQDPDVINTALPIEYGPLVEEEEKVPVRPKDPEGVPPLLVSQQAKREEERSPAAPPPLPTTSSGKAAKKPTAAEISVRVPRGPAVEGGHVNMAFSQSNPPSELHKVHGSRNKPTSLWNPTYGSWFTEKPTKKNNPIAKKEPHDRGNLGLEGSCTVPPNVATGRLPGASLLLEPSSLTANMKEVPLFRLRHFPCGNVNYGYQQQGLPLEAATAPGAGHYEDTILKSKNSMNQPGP
Protocol: For most assays, kinase-tagged T7 phage strains were grown in parallel in 24-well blocks in an E. coli host derived from the BL21 strain. E. coli were grown to log-phase and infected with T7 phage from a frozen stock (multiplicity of infection 0.1) and incubated with shaking at 32° C. until lysis (˜90 minutes). The lysates were centrifuged (6,000×g) and filtered ([…]) to remove cell debris. The remaining kinases were produced in HEK-293 cells and subsequently tagged with DNA for qPCR detection. […] The liganded beads were blocked with excess biotin and washed with blocking buffer (SeaBlock (Pierce), 1% BSA, 0.05% Tween 20, 1 mM DTT) to remove unbound ligand and to reduce non-specific phage binding. […] Test compounds were prepared as 40× stocks in 100% DMSO and directly diluted into the assay. All reactions were performed in polypropylene 384-well plates in a final volume of 0.04 ml. […] The kinase concentration in the eluates was measured by qPCR.

[5] = Human microsomal stability; format: in vitro ADME; settings: compared with Example 25 of WO 2009/154769; 1 μM, 1 mg/mL microsomes
Protocol: Pooled human liver microsomes (1 mg/mL) are incubated at 37° C. in phosphate buffer (pH 7.4) with the test compound (1 μM). The reaction is started with the addition of NADPH. (1 mM final concentration). Incubations are stopped after 0, 5, 10, 20, 40, 60 minutes with the addition of organic solvent. Quenched samples are analyzed for unchanged test compound by LC/MS/MS detection. Percent turnover is determined by the ratio of the amount (peak area) of unchanged test compound remaining in incubated samples to the amount of unchanged test compound in non-incubated samples (0 minutes). Half-life is calculated based on the percent turnover data.

[6] = test system: H3122 tumor cells; assay: Cell viability assay of tumor cells with ALK fusion proteins (H3122); format: cell-based; settings: Homo sapiens, NCI-H3122; H3122, 72 hours post drug addition; read-out: Inhibition of H3122 tumor cell growth (IC50)
Protocol: as §1

[7] = biological target: c-Met (Homo sapiens (Human), UniProt P08581); assay: Ambit kinase binding assay (c-Met)
Chain of c-Met (P08581 25-1390): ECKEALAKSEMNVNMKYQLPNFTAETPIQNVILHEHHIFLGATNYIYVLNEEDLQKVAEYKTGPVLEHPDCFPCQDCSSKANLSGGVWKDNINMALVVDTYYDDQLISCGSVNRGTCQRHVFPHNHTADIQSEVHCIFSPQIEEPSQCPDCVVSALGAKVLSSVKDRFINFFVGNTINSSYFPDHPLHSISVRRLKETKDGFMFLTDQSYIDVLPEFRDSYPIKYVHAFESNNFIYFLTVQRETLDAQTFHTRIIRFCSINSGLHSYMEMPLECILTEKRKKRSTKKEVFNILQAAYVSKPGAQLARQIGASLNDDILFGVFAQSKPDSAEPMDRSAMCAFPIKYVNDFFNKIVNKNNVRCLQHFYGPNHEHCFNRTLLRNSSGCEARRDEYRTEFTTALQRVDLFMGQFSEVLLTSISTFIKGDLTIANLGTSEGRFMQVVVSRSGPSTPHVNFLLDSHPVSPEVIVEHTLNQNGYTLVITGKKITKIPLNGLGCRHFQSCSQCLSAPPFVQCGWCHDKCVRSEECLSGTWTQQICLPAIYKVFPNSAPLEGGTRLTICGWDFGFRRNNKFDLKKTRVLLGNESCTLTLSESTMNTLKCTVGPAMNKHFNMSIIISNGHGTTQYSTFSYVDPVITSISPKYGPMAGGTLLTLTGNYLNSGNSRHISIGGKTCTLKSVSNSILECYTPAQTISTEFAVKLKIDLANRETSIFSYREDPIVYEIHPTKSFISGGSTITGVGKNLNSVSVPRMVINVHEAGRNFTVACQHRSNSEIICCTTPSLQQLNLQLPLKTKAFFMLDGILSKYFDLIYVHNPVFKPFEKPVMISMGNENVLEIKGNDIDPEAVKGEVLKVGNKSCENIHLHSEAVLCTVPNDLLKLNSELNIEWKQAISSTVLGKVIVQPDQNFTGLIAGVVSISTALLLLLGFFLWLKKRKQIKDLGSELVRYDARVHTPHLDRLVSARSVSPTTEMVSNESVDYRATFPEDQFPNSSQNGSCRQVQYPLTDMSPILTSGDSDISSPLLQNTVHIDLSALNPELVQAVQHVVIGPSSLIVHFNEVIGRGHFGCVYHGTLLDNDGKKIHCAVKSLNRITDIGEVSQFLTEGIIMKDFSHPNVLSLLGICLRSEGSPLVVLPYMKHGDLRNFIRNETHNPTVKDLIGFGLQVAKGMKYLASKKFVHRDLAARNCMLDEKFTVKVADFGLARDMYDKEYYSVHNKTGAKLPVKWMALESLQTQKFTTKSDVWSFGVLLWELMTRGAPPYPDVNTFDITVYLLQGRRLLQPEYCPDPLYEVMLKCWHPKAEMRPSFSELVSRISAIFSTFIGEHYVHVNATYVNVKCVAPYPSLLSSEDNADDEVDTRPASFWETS
Protocol: Assays were performed as described in Fabian et al. (2005) Nature Biotechnology, vol. 23, p. 329 and in Karaman et al. (2008) Nature Biotechnology, vol. 26, p. 127.
For most assays, kinase-tagged T7 phage strains were grown in parallel in 24-well blocks in an E. coli host derived from the BL21 strain. E. coli were grown to log-phase and infected with T7 phage from a frozen stock (multiplicity of infection 0.1) and incubated with shaking at 32° C. until lysis (˜90 minutes). The lysates were centrifuged (6,000×g) and filtered ([…]) to remove cell debris. The remaining kinases were produced in HEK-293 cells and subsequently tagged with DNA for qPCR detection. Streptavidin-coated magnetic beads were treated with biotinylated small molecule ligands for 30 minutes at room temperature to generate affinity resins for kinase assays. The liganded beads were blocked with excess biotin and washed with blocking buffer (SeaBlock (Pierce), 1% BSA, 0.05% Tween 20, 1 mM DTT) to remove unbound ligand and to reduce non-specific phage binding. […] Test compounds were prepared as 40× stocks in 100% DMSO and directly diluted into the assay. All reactions were performed in polypropylene 384-well plates in a final volume of 0.04 ml. The assay plates were incubated at room temperature with shaking for 1 hour and the affinity beads were washed with wash buffer (1×PBS, 0.05% Tween 20). The beads were then re-suspended in elution buffer (1×PBS, 0.05% Tween 20, 0.5 mM non-biotinylated affinity ligand) and incubated at room temperature with shaking for 30 minutes. The kinase concentration in the eluates was measured by qPCR.

[8] = test system: H3122 cells; assay: Cell apoptosis assay of tumor cells with ALK fusion proteins; format: cell-based; settings: compared with PF-2341066 at the same concentration, 72 h, FIG. 1
Protocol: For apoptosis experiments, cells were seeded in 12 well plates at 25% confluency and treated in triplicate with ALK TKI. At 72 h post drug addition, cells were collected, washed in PBS, and stained with annexin V and propidium iodide according to the manufacturer's instructions (Vybrant Apooptosis Assay Kit, Invitrogen, Carlsbad, Calif.). Data were collected on a FACSCanto II (BD Biosciences, San Jose, Calif.) and processed using WinList flow cytometry analysis software (Verity Software, Topsham, Me.).

IC50 [4]: > 10 nM
IC50 [7]: < 20 nM
Structure (SMILES): COc1ccc(NC(=O)c2cc(OC(C)c3c(Cl)ccc(F)c3Cl)c(N)nn2)cc1 (centres unmarked) [b, reference compound]

IC50 [4]: < 1 nM
Structure (SMILES): C[C@@H](Oc1cc(C(=O)Nc2ccc(C(=O)N3CCNC(C)(C)C3)cc2)nnc1N)c1c(Cl)ccc(F)c1Cl [Example 17, {5-[(1R)-1-(2,6-dichloro-3-fluorophenyl)ethoxy]-6-aminopyridazin-3-yl}-N-{4-[(3,3-dimethylpiperazinyl)carbonyl]phenyl}carboxamide]

IC50 [4]: > 10 nM
IC50 [7]: < 20 nM
Structure (SMILES): CC(Oc1cc(C(=O)Nc2ccncc2)nnc1N)c1c(Cl)ccc(F)c1Cl (centres unmarked) [a, reference compound]

IC50 [4]: > 10 nM
IC50 [7]: < 20 nM
Structure (SMILES): CC(Oc1cc(C(=O)Nc2ccc(N3CCOCC3)cc2)nnc1N)c1c(Cl)ccc(F)c1Cl (centres unmarked) [c, reference compound]

Further lines, the compound ahead of its results:

Structure (SMILES): C[C@@H]1CN(C(=O)c2ccc(NC(=O)c3cc(O[C@H](C)c4c(Cl)ccc(F)c4Cl)c(N)nn3)cc2)C[C@H](C)N1 [Example 18, {5-[(1R)-1-(2,6-dichloro-3-fluorophenyl)ethoxy]-6-aminopyridazin-3-yl}-N-{4-[((3S,5R)-3,5-dimethylpiperazinyl)carbonyl]phenyl}carboxamide]
Median survival time (MST) ([1]; 25 mg/kg BID): 25 days
Median survival time (MST) ([1]; 50 mg/kg BID): 34.5 days
Brain penetration (ratio of concentration in brain tissues to plasma) [2]: higher brain penetration
IC50 [3]: < 100 nM
IC50 [4]: < 1 nM
Half-life in human liver microsomes [5]: longer half-life
IC50 [6]: < 30 nM

Structure (SMILES): C[C@@H](Oc1cc(C(=O)Nc2ccc(C(=O)N3CCN4CCCC4C3)cc2)nnc1N)c1c(Cl)ccc(F)c1Cl (stereo partly drawn) [Example 13, {5-[(1R)-1-(2,6-dichloro-3-fluorophenyl)ethoxy]-6-aminopyridazin-3-yl}-N-{4-[(3,6-diazabicyclo[4.3.0]non-3-yl)carbonyl]phenyl}carboxamide]
IC50 [4]: < 1 nM

Structure (SMILES): C[C@@H](Oc1cc(C(=O)Nc2ccc(C(=O)N3CCCNCC3)cc2)nnc1N)c1c(Cl)ccc(F)c1Cl [Example 16, {5-[(1R)-1-(2,6-dichloro-3-fluorophenyl)ethoxy]-6-aminopyridazin-3-yl}-N-[4-(1,4-diazaperhydroepinylcarbonyl)phenyl]carboxamide]
IC50 [3]: < 100 nM
IC50 [4]: < 1 nM
Half-life in human liver microsomes [5]: longer half-life
IC50 [6]: < 30 nM

Structure (SMILES): C[C@@H](Oc1cc(C(=O)Nc2ccc(C(=O)N3CCN(C)CC3)cc2)nnc1N)c1c(Cl)ccc(F)c1Cl [Example 1, {5-[(1R)-1-(2,6-dichloro-3-fluorophenyl)ethoxy]-6-aminopyridazin-3-yl}-N-{4-[(4-methylpiperazinyl)carbonyl]phenyl}carboxamide]
Induction of apoptosis in H3122 cells [8]: more effective
IC50 [3]: < 100 nM
IC50 [4]: < 1 nM
IC50 [6]: < 50 nM

Structure (SMILES): C[C@@H](Oc1cc(-c2cnn(C3CCNCC3)c2)cnc1N)c1c(Cl)ccc(F)c1Cl [PF-2341066, crizotinib, reference compound]
Median survival time (MST) ([1]; 50 mg/kg BID): 28 days

Structure (SMILES): C[C@H](Oc1cc(C(=O)Nc2ccc(C(=O)N3CCN(C)CC3)cc2)nnc1N)c1c(Cl)ccc(F)c1Cl [Example 2, {5-[(1S)-1-(2,6-dichloro-3-fluorophenyl)ethoxy]-6-aminopyridazin-3-yl}-N-{4-[(4-methylpiperazinyl)carbonyl]phenyl}carboxamide]
IC50 [4]: > 50 nM

Structure (SMILES): C[C@@H](Oc1cc(C(=O)Nc2ccc(C(=O)N3CCCN(C)CC3)cc2)nnc1N)c1c(Cl)ccc(F)c1Cl [Example 15, {5-[(1R)-1-(2,6-dichloro-3-fluorophenyl)ethoxy]-6-aminopyridazin-3-yl}-N-{4-[(4-methyl(1,4-diazaperhydroepinyl))carbonyl]phenyl}carboxamide]
IC50 [4]: < 1 nM

Reference: patent publication US9126947B2, “Substituted pyridazine carboxamide compounds” (Xcovery Holding Company LLC, priority 2010, dated 2015)
